Laboratory results taken from patent publication US9988420B2, “Cytotoxic peptides and conjugates thereof” (priority 2013, dated 2018).
Where two headings read alike, the source gives them in different places. Starred links: 1 amine or outer side, 2 acyl side, 3 side chain; linkers in the order of their positions; H or OH if unused. Non-standard residues stand in square brackets, D forms with d. Residues, ends and D or L forms follow the SMILES beside them. *: point of attachment. Dolaproine = CO[C@@H]([C@@H]1CCCN1)[C@@H](C)C(=O)O; X1 = O=C([C@@H]1[C@H]2CC[C@H](C2)N1[*:1])[*:2]; X3 = NC(=O)CN1[C@@H]2CC[C@@H](C2)[C@H]1C(=O)*; Dil = CC[C@H](C)[C@H](NC)[C@@H](CC(=O)O)OC; X4 = N#CCN1[C@@H]2CC[C@@H](C2)[C@H]1C(=O)*; X2 = CN1[C@@H]2CC[C@@H](C2)[C@H]1C(=O)*; Phe(ol) = N[C@H](CO)Cc1ccccc1

Assays:
Assay in all cases: In vitro cell killing assay of payloads (cell proliferation, Cell-Titer-Glo)
Format in all cases: cell-based
[1] = tested on: H526 cells; conditions: Homo sapiens, read-out: In vitro cell killing (IC50 (nM)) NCI-H526
[2] = tested on: JimT1 cells; conditions: Homo sapiens, JIMT-1, 120 h, read-out: In vitro cell killing (IC50 (nM)) JimT1
[3] = tested on: HCC1954 cells; conditions: Homo sapiens, read-out: In vitro cell killing (IC50 (nM)) HCC1954
[4] = tested on: A375 cells; conditions: Homo sapiens, A-375, 120 h, Cell-Titer-Glo after five days
Experimental: (§1) For evaluation of the cell killing potency of the cytotoxic peptides of Formula (I) in vitro, cell proliferation assays were performed in parallel with 8 cell lines: MDA-MB231 clone 16, clone 40, JimT1, HCC1954, H526, KU812, CMK11-5 cells and Jurkat cells. In addition, in vitro, cell proliferation assays were performed using 3 other cell lines: A375, SKBR3 and NCI-N87. All the cell lines are described in more detail in Example 106 and were also used to assess the in vitro potency of immunoconjugates of the invention. The cell proliferation assays were conducted with Cell-Titer-Glo™ (Promega) five days after cells were incubated with various concentrations of ADCs (Riss et al., (2004) Assay Drug Dev Technol. 2:51-62).

[5] = tested on: SKBR3 cells; conditions: Homo sapiens, SK-BR-3, 120 h, Cell-Titer-Glo after five days
Experimental: as §1

[6] = tested on: NCI-N87 cells; conditions: Homo sapiens, 120 h, Cell-Titer-Glo after five days
Experimental: as §1

[7] = 120 h, NCI-H526 cells, Cell-Titer-Glo after five days, Table 2b
[8] = JimT1 cells, Cell-Titer-Glo after five days, Table 2b
[9] = 120 h, HCC1954 cells, Cell-Titer-Glo after five days, Table 2b

| SMILES | IC50 [1, 7] [nM] | IC50 [2, 8] [nM] | IC50 [3, 9] [nM] | IC50 [4] [nM] | IC50 [5] [nM] | IC50 [6] [nM] | IC50 ([1]; NCI-H526, 120 h) [nM] | IC50 [2] [nM] | IC50 ([3]; HCC1954, 120 h) [nM] |
| --- | --- | --- | --- | --- | --- | --- | --- | --- | --- |
| CC[C@H](C)[C@@H]([C@@H](CC(=O)N1CCC[C@H]1[C@H](OC)[C@@H](C)C(=O)N[C@@H](Cc1ccccc1)C(=O)OC)OC)N(C)C(=O)[C@@H](NC(=O)[C@@H]1[C@H]2CC[C@H](C2)N1C)C(C)C [Compound 53, (S)-Methyl 2-((2R,3R)-3-((S)-1-((3R,4S,5S)-4-((S)-N,3-dimethyl-2-((1R,3S,4S)-2-methyl-2-azabicyclo[2.2.1]heptane-3-carboxamido)butanamido)-3-methoxy-5-methylheptanoyl)pyrrolidin-2-yl)-3-methoxy-2-methylpropanamido)-3-phenylpropanoate] (X2-V[Dil][Dolaproine]F-OMe) | 0.121 | 0.011 | 0.009 | 0.0121 | 0.008 |  |  |  |  |
| CC[C@H](C)[C@@H]([C@@H](CC(=O)N1CCC[C@H]1[C@H](OC)[C@@H](C)C(=O)N[C@@H](Cc1ccccc1)C(=O)O)OC)N(C)C(=O)[C@@H](NC(=O)[C@@H]1[C@H]2CC[C@H](C2)N1C)C(C)C [Compound 54, (S)-2-((2R,3R)-3-((S)-1-((3R,4S,5S)-4-((S)-N,3-Dimethyl-2-((1R,3S,4S)-2-methyl-2-azabicyclo[2.2.1]heptane-3-carboxamido)butanamido)-3-methoxy-5-methylheptanoyl)pyrrolidin-2-yl)-3-methoxy-2-methylpropanamido)-3-phenylpropanoic acid] (X2-V[Dil][Dolaproine]F-OH) | 54.8 | 17.1 | 7.18 | 27.4 |  | 7.59 |  |  |  |
| CC[C@H](C)[C@@H]([C@@H](CC(=O)N1CCC[C@H]1[C@H](OC)[C@@H](C)C(=O)N[C@H](CO)Cc1ccccc1)OC)N(C)C(=O)[C@@H](NC(=O)[C@@H]1[C@H]2CC[C@H](C2)N1CC#N)C(C)C [Compound 63, (1R,3S,4S)-2-(Cyanomethyl)-N-((S)-1-(((3R,4S,5S)-1-((S)-2-((1R,2R)-3-(((S)-1-hydroxy-3-phenylpropan-2-yl)amino)-1-methoxy-2-methyl-3-oxopropyl)pyrrolidin-1-yl)-3-methoxy-5-methyl-1-oxoheptan-4-yl)(methyl)amino)-3-methyl-1-oxobutan-2-yl)-2-azabicyclo[2.2.1]heptane-3-carboxamide] (X4-V[Dil][Dolaproine][Phe(ol)]) | 6.49 | 5.08 | 1.64 | 14.3 |  | 2.09 |  |  |  |
| CC[C@H](C)[C@@H]([C@@H](CC(=O)N1CCC[C@H]1[C@H](OC)[C@@H](C)C(=O)N[C@H](CO)Cc1ccccc1)OC)N(C)C(=O)[C@@H](NC(=O)[C@@H]1[C@H]2CC[C@H](C2)N1CC(N)=O)C(C)C [Compound 64, (1R,3S,4S)-2-(2-Amino-2-oxoethyl)-N-((S)-1-(((3R,4S,5S)-1-((S)-2-((1R,2R)-3-(((S)-1-hydroxy-3-phenylpropan-2-yl)amino)-1-methoxy-2-methyl-3-oxopropyl)pyrrolidin-1-yl)-3-methoxy-5-methyl-1-oxoheptan-4-yl)(methyl)amino)-3-methyl-1-oxobutan-2-yl)-2-azabicyclo[2.2.1]heptane-3-carboxamide] (X3-V[Dil][Dolaproine][Phe(ol)]) | 5.74 | 4.15 | 1.09 | 25.6 |  | 1.21 |  |  |  |
| CC[C@H](C)[C@@H]([C@@H](CC(=O)N1CCC[C@H]1[C@H](OC)[C@@H](C)C(=O)N[C@H](CO)Cc1ccccc1)OC)N(C)C(=O)[C@@H](NC(=O)[C@@H]1[C@H]2CC[C@H](C2)N1C(C)=O)C(C)C [Compound 65, (1R,3S,4S)-2-Acetyl-N-((S)-1-(((3R,4S,5S)-1-((S)-2-((1R,2R)-3-(((S)-1-hydroxy-3-phenylpropan-2-yl)amino)-1-methoxy-2-methyl-3-oxopropyl)pyrrolidin-1-yl)-3-methoxy-5-methyl-1-oxoheptan-4-yl)(methyl)amino)-3-methyl-1-oxobutan-2-yl)-2-azabicyclo[2.2.1]heptane-3-carboxamide] (Ac-[X1]V[Dil][Dolaproine][Phe(ol)]) | 3.82 | 6.88 | 0.93 | 31.3 |  | 3.67 |  |  |  |
| CC[C@H](C)[C@@H]([C@@H](CC(=O)N1CCC[C@H]1[C@H](OC)[C@@H](C)C(=O)N[C@@H](Cc1ccccc1)c1nc(-c2ccccc2)c[nH]1)OC)N(C)C(=O)[C@@H](NC(=O)[C@@H]1[C@H]2CC[C@H](C2)N1C)C(C)C [Compound 66, (1R,3S,4S)-N-((S)-1-(((3R,4S,5S)-3-Methoxy-1-((S)-2-((1R,2R)-1-methoxy-2-methyl-3-oxo-3-(((S)-2-phenyl-1-(4-phenyl-1H-imidazol-2-yl)ethyl)amino)propyl)pyrrolidin-1-yl)-5-methyl-1-oxoheptan-4-yl)(methyl)amino)-3-methyl-1-oxobutan-2-yl)-2-methyl-2-azabicyclo[2.2.1]heptane-3-carboxamide] | 0.126 | 0.052 | 0.023 | 0.05 | 0.031 |  |  |  |  |
| CC[C@H](C)[C@@H]([C@@H](CC(=O)N1CCC[C@H]1[C@H](OC)[C@@H](C)C(=O)N[C@H](COC)Cc1ccccc1)OC)N(C)C(=O)[C@@H](NC(=O)[C@@H]1[C@H]2CC[C@H](C2)N1C)C(C)C [Compound 67, (1R,3S,4S)-N-((S)-1-(((3R,4S,5S)-3-Methoxy-1-((S)-2-((1R,2R)-1-methoxy-3-(((S)-1-methoxy-3-phenylpropan-2-yl)amino)-2-methyl-3-oxopropyl)pyrrolidin-1-yl)-5-methyl-1-oxoheptan-4-yl)(methyl)amino)-3-methyl-1-oxobutan-2-yl)-2-methyl-2-azabicyclo[2.2.1]heptane-3-carboxamide] |  |  |  | 0.244 |  |  | 0.614 | 0.369 | 0.239 |
| CC[C@H](C)[C@@H]([C@@H](CC(=O)N1CCC[C@H]1[C@H](OC)[C@@H](C)C(=O)N[C@@H](Cc1ccccc1)c1cc[nH]n1)OC)N(C)C(=O)[C@@H](NC(=O)[C@@H]1[C@H]2CC[C@H](C2)N1C)C(C)C [Compound 68, (1R,3S,4S)-N-((S)-1-(((3R,4S,5S)-3-Methoxy-1-((S)-2-((1R,2R)-1-methoxy-2-methyl-3-oxo-3-(((S)-2-phenyl-1-(1H-pyrazol-3-yl)ethyl)amino)propyl)pyrrolidin-1-yl)-5-methyl-1-oxoheptan-4-yl)(methyl)amino)-3-methyl-1-oxobutan-2-yl)-2-methyl-2-azabicyclo[2.2.1]heptane-3-carboxamide] | 0.428 | 0.251 | 0.127 | 0.596 |  | 0.2 |  |  |  |
| CC[C@H](C)[C@@H]([C@@H](CC(=O)N1CCC[C@H]1[C@H](OC)[C@@H](C)C(=O)N[C@@H](Cc1ccccc1)c1ncccn1)OC)N(C)C(=O)[C@@H](NC(=O)[C@@H]1[C@H]2CC[C@H](C2)N1C)C(C)C [Compound 69, (1R,3S,4S)-N-((S)-1-(((3R,4S,5S)-3-Methoxy-1-((S)-2-((1R,2R)-1-methoxy-2-methyl-3-oxo-3-(((S)-2-phenyl-1-(pyrimidin-2-yl)ethyl)amino)propyl)pyrrolidin-1-yl)-5-methyl-1-oxoheptan-4-yl)(methyl)amino)-3-methyl-1-oxobutan-2-yl)-2-methyl-2-azabicyclo[2.2.1]heptane-3-carboxamide] | 0.189 | 0.091 | 0.065 | 0.092 |  | 0.142 |  |  |  |
| CC[C@H](C)[C@@H]([C@@H](CC(=O)N1CCC[C@H]1[C@H](OC)[C@@H](C)C(=O)N[C@H](Cc1ccccc1)c1ncccn1)OC)N(C)C(=O)[C@@H](NC(=O)[C@@H]1[C@H]2CC[C@H](C2)N1C)C(C)C [Compound 70, (1R,3S,4S)-N-((S)-1-(((3R,4S,5S)-3-methoxy-1-((S)-2-((1R,2R)-1-methoxy-2-methyl-3-oxo-3-(((R)-2-phenyl-1-(pyrimidin-2-yl)ethyl)amino)propyl)pyrrolidin-1-yl)-5-methyl-1-oxoheptan-4-yl)(methyl)amino)-3-methyl-1-oxobutan-2-yl)-2-methyl-2-azabicyclo[2.2.1]heptane-3-carboxamide] | 4.73 | 2.36 | 1.38 | 2.16 |  | 3.81 |  |  |  |
| CC[C@H](C)[C@@H]([C@@H](CC(=O)N1CCC[C@H]1[C@H](OC)[C@@H](C)C(=O)N[C@@H](Cc1ccccc1)c1nnc(-c2ccccc2)o1)OC)N(C)C(=O)[C@@H](NC(=O)[C@@H]1[C@H]2CC[C@H](C2)N1C)C(C)C [Compound 71, (1R,3S,4S)-N-((S)-1-(((3R,4S,5S)-3-methoxy-1-((S)-2-((1R,2R)-1-Methoxy-2-methyl-3-oxo-3-(((S)-2-phenyl-1-(5-phenyl-1,3,4-oxadiazol-2-yl)ethyl)amino)propyl)pyrrolidin-1-yl)-5-methyl-1-oxoheptan-4-yl)(methyl)amino)-3-methyl-1-oxobutan-2-yl)-2-methyl-2-azabicyclo[2.2.1]heptane-3-carboxamide] | 0.352 | 0.124 | 0.075 | 0.119 |  | 0.091 |  |  |  |
